system: Colorado potato beetle (CPB) adults; experiment: open Y-track olfactometer dual choice bioassay, adult beetles; type: in vivo, Leptinotarsa decemlineata; conditions: not given
From the text: Insects: Adult Colorado potato beetles (CPB) were obtained from a laboratory colony which was annually infused with feral insects. CPB were maintained on potato, S. tuberosum cultivar Kennebeck, for both larval and adult stages. Upon emergence, adults were sexed; individual insects were kept in plastic containers with fresh potato foliage and water until use six to 12 days post emergence. Prior to testing, CPB were starved for two to three hours. Experimental insects were used only once.
Odorous blends tested are described in Table 3.
Plant stimuli consisted of 4.8 g of leaves from mature plants that were mechanically-damaged using scissors to make incisions ca. 1 cm in length at ca. 1 cm intervals around the circumference of leaves. Foliage used in the study were, potato, S. tuberosum cultivar Kennebeck (Solanaceae); tomato, Lycopersicon esculentum Mill cultivar Pik Red (Solanaceae); and soybean, Glycines maxcultivar Williams (Leguminaceae).
Experimental protocol: Chemical blends and plant foliage were tested for behavioral activity in an open Y-track olfactometer modified after Visser et al. (Visser, J. H., et al., Proceedings of the Section Experimental and Applied Entomology of the Netherlands Entomological Society Amsterdam, 9: 41-46 (1998); and described in detail by Dickens (Dickens, J. C., Agricultural and Forest Entomology, 1: 47-54 (1999)). In brief, odorous stimuli emanating from synthetic blends on filter paper discs (2.5 cm dia., Whatman™ #1 filter paper) or mechanically-damaged plant foliage in Ehrlenmeyer flasks were delivered to either side of the device. For each blend, a total amount of 25 μl of neat chemicals were diluted in 1 ml of mineral oil (25 μg total chemicals/μl mineral oil). […]
Statistical analysesLaboratory bioassays were assessed for significant differences by the hypothesis on binomial proportions based on the standard normal approximation (Brase, C. H., et al., Understanding Statistics, D. C. Heath and Co., Lexington, Mass., XIV +489 pp. (1983)).

Q: For `C=CC(C)(O)CCC=C(C)C` (single isomer, unassigned; (+)) [XV, (+)-linalool], which “behavioral response of CPB to treatment versus control (in words)” value is on record?
A: unattractive

Q: Which “behavioral response of CPB to treatment versus control (in words)” value does the source give for `CC/C=C\CCOC(C)=O` [XIV, (Z)-3-hexenyl acetate] here?
A: unattractive

Q: With `COC(=O)c1ccccc1O` [XVI, methyl salicylate] as the molecule, how does the “behavioral response of CPB to treatment versus control (in words)” value read?
A: unattractive

system: CPB; experiment: not given; conditions: Schütz et al. (1997); cited from earlier work

Q: With `OCCc1ccccc1` [2-benzene-ethanol] as the molecule, how does the “attraction of CPB to leaves sprayed with paraffin solutions (in words)” value (from here on “attraction of CPB to leaves sprayed”) read?
A: attractive

Q: For `CCCCC/C=C\CCO` [(Z)-3-nonen-1-ol], which “attraction of CPB to leaves sprayed” value is on record?
A: reduced attraction

Q: For `C=CC(C)(O)CCC=C(C)C` (stereo not shown) [linalool], which “attraction of CPB to leaves sprayed” value is on record?
A: attractive

Q: For `CCCCCCCCC=O` [nonanal], which “attraction of CPB to leaves sprayed” value is on record?
A: reduced attraction

Q: For `C=C1CC/C=C(\C)CC[C@@H]2[C@@H]1CC2(C)C` [β-caryophyllene], which “attraction of CPB to leaves sprayed” value is on record?
A: attractive

Q: Which “attraction of CPB to leaves sprayed” value does the source give for `C=CC(=C)CCC=C(C)C` [β-myrcene] here?
A: reduced attraction

Q: Which “attraction of CPB to leaves sprayed” value does the source give for benzene methanol here?
A: attractive

From patent US6479046B2, “Attractants and repellants for colorado potato beetle” (priority 2000, dated 2002)
